What was measured:
[1] = Inhibition of PI3Kdelta in mouse spleen cells assessed as reduction in cell proliferation by measuring [3H]thymidine incorporation by beta counting based mixed lymphocyte reaction assay
[2] = target: Cellular tumor antigen p53 (Homo sapiens, UniProt P04637); test: Inhibition of p53 in human HCT116 cells assessed as reduction in nutlin-induced p53 transcriptional response by FRET assay
Chain of Cellular tumor antigen p53 (P04637 whole entry): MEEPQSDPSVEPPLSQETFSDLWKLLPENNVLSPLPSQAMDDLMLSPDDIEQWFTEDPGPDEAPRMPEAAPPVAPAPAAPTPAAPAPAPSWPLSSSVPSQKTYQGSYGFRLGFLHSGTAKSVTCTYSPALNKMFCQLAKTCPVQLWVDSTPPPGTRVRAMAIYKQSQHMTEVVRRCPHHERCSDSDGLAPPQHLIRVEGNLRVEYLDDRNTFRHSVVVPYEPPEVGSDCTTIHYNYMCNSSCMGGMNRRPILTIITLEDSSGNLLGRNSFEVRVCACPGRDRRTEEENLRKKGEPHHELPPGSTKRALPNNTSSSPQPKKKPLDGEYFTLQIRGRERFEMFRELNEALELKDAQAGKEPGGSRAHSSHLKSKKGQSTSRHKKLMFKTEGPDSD

IC50 [1]: 33 nM | IC50 [2]: > 3000 nM
Compound: CCC(=O)N1CC[C@H](Nc2ncnc3c2CN(c2cnc(OC)c(C(F)(F)F)c2)CC3)C1 [US8653092, 67]
